We go through five compounds from patent US11566007B2, “Ras inhibitors” (Revolution Medicines, Inc., priority 2019, dated 2023).

The term IC50 denotes the concentration that inhibits the measured activity by half. A word on the EC50: it is the concentration that produces a half-maximal response.

“And” between values parts separate entries of the source, which are not always exact repeats. Equal entries are not always repeated. Where two headings read alike, the source gives them in different places.

The target in test [1] is KRAS G12D (Homo sapiens (Human), UniProt P01116+P62937, G12D). Kind of test: Ras-Raf (BRAF RBD) disruption / FRET / MOA assay, KRAS G12D. It counts as biochemical. The settings on record: Ras-Raf disruption/FRET/MOA assay; class symbols; read-out: KRAS G12D FRET data IC50. The method in brief:
(§1)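 Compounds, top final concentration 30 μM in 10-point 3-fold series, incubated 3 hours at 25° C with nucleotide-loaded Ras, cyclophilin A and BRAF RBD.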

The target in test [2] is KRAS G13D (Homo sapiens (Human), UniProt P01116+P62937, G13D). Kind of test: Ras-Raf (BRAF RBD) disruption / FRET / MOA assay, KRAS G13D. It counts as biochemical. The settings on record: read-out: IC50* KRAS G13D FRET data. The procedure: (§2) The purpose of this biochemical assay is to measure the ability of test compounds to facilitate ternary complex formation between a nucleotide-loaded Ras isoform and cyclophilin A; the resulting ternary complex disrupts binding to a BRAF^RBD construct, inhibiting Ras signaling through a RAF effector.
(§3) Compound is present in plate wells as a 10-point 3-fold dilution series starting at a final concentration of 30 μM. After incubation at 25° C. for 3 hours, a mixture of Anti-His Eu-W1024 and anti-GST allophycocyanin is then added to assay sample wells at final concentrations of 10 nM and 50 nM, respectively, and the reaction incubated for an additional 1.5 hours. […] Compounds that facilitate disruption of a Ras:RAF complex are identified as those eliciting a decrease in the TR-FRET ratio relative to DMSO control wells.
(§4) This protocol may also be executed substituting other Ras proteins or nucleotides.
(§5) The purpose of this biochemical assay was to measure the ability of test compounds to facilitate ternary complex formation between a nucleotide-loaded K-Ras isoform and Cyclophilin A; the resulting ternary complex disrupts binding to a BRAF^RBD construct, inhibiting K-Ras signaling through a RAF effector. Data is reported as IC50 values.
(§6) Compound was present in plate wells as a 10-point 3-fold dilution series starting at a final concentration of 30 μM. After incubation at 25° C. for 3 hours, a mixture of Anti-His Eu-W1024 and anti-GST allophycocyanin was then added to assay sample wells at final concentrations of 10 nM and 50 nM, respectively, and the reaction incubated for an additional 1.5 hours. […] Compounds that facilitate disruption of a K-Ras:RAF complex were identified as those eliciting a decrease in the TR-FRET ratio relative to DMSO control wells.

In test [3] the test system is NCI-H358 cells (K-Ras G12C). As to the kind of experiment: Potency assay: pERK in NCI-H358 cells. It counts as cell-based, human. The conditions noted are these: H358 KRAS G12C, read-out: pERK EC50. The method in brief:
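pERK decrease read by AlphaLISA SureFire p-ERK1/2 or In-Cell Western after 4 h compound exposure at 37 °C, 5% CO2.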

The target of test [4] is K-Ras G12C (Homo sapiens (Human), UniProt P01116+P62937, G12C). Kind of test: Ras-Raf (BRAF RBD) disruption / FRET / MOA assay, KRAS G12C. Type of test: biochemical. The settings on record: KRAS G12C; Ras-Raf disruption/FRET/MOA assay; read-out: IC50* KRAS G12C FRET data. The procedure: as §2, §3, §4, §5, §6
The target of test [5] is K-Ras G13C (Homo sapiens (Human), UniProt P01116+P62937, G13C). Kind of test: Ras-Raf (BRAF RBD) disruption / FRET / MOA assay, KRAS G13C. Type of test: biochemical. The conditions noted are these: KRAS G13C; Ras-Raf disruption/FRET/MOA assay; read-out: IC50* KRAS G13C FRET data. The procedure:
as §2, §3, §4, §5, §6

In test [6] the target is KRAS G12V (Homo sapiens (Human), UniProt P01116+P62937, G12V). Kind of test: Ras-Raf (BRAF RBD) disruption / FRET / MOA assay, KRAS G12V. It counts as biochemical. The settings on record: read-out: IC50* KRAS G12V FRET data. The procedure:
as §2, §3, §4, §5, §6

For test [7], the target named is NRAS G12C (Homo sapiens (Human), UniProt P01111+P62937, G12C). As to the kind of experiment: Ras-Raf (BRAF RBD) disruption / FRET / MOA assay, NRAS G12C. Type of test: biochemical. The settings on record: read-out: IC50* NRAS G12C FRET data. The procedure: as §2, §3
This protocol may also be executed substituting other Ras proteins or nucleotides. […]

Test [8] relates to NCI-H358 (K-Ras G12C). Kind of test: CellTiter-Glo cell viability assay, NCI-H358. It counts as cell-based, human. The settings on record: Homo sapiens, NCI-H358, 120 h, NCI-H358, 5-day treatment; class symbols; read-out: Additional H358 Cell Viability assay data (K-Ras G12C, IC50). The essentials: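 Cells seeded, compound added directly, 5-day exposure. Plates to RT ~30 min, CellTiter-Glo luminescence read. Normalized to DMSO avg (x100); 4-parameter logistic fit.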
Background: In ATP-based viability assays light output follows the ATP content of the culture.

Test [9] concerns the target KRAS G12S (Homo sapiens (Human), UniProt P01116+P62937, G12S). As to the kind of experiment: Ras-Raf (BRAF RBD) disruption / FRET / MOA assay, KRAS G12S. It counts as biochemical. The conditions noted are these: Ras-Raf disruption/FRET/MOA assay; class symbols; read-out: KRAS G12S FRET data IC50. The method in brief: as §1
Test [10] addresses KRAS WT (Homo sapiens (Human), UniProt P01116+P62937). Kind of test: Ras-Raf (BRAF RBD) disruption / FRET / MOA assay, KRAS WT. The settings on record: read-out: IC50* KRAS WT FRET data. Type of test: biochemical. The procedure:
as §2, §3, §4, §5, §6

Chain of KRAS G12S (P01116-2 other isoform, or with tags, fused parts or gaps G12S): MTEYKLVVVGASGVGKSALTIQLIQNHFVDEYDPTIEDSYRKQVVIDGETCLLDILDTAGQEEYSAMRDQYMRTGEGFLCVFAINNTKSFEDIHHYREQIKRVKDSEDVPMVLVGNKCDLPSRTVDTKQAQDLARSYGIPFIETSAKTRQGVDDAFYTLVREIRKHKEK
Chain of KRAS G12S (P62937 whole entry): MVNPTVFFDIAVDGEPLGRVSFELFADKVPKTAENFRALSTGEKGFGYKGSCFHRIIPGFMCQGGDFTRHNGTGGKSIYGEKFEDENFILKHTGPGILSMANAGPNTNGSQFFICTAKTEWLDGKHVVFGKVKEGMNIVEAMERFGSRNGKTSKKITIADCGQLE
Chain of KRAS G12V (P01116-2 other isoform, or with tags, fused parts or gaps G12V): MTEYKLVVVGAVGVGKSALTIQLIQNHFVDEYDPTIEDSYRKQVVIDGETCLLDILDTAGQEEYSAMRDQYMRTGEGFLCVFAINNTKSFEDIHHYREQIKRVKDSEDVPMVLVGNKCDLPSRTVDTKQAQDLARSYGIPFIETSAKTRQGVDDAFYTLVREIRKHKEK
Chain of KRAS G12V (P62937 whole entry): as the sequence (P62937 whole entry) above
Chain of KRAS WT (P01116-2 other isoform, or with tags, fused parts or gaps): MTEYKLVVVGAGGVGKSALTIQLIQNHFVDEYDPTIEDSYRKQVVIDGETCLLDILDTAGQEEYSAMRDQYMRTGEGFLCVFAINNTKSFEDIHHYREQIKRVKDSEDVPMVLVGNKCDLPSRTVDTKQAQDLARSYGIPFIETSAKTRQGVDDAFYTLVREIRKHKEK
Chain of KRAS WT (P62937 whole entry): as the sequence (P62937 whole entry) above
Chain of NRAS G12C (P01111 whole entry G12C): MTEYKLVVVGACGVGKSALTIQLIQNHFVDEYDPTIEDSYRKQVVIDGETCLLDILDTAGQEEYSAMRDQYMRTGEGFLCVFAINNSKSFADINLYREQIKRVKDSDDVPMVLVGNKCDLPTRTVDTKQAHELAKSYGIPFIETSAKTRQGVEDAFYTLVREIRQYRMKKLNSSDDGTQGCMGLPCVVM
Chain of NRAS G12C (P62937 whole entry): as the sequence (P62937 whole entry) above
Chain of KRAS G12D (P01116-2 other isoform, or with tags, fused parts or gaps G12D): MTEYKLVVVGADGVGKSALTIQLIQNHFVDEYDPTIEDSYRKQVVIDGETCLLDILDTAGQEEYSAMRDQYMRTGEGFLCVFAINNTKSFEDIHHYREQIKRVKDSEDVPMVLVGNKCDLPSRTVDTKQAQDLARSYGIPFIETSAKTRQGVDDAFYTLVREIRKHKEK
Chain of KRAS G12D (P62937 whole entry): as the sequence (P62937 whole entry) above
Chain of K-Ras G13C (P01116-2 other isoform, or with tags, fused parts or gaps G13C): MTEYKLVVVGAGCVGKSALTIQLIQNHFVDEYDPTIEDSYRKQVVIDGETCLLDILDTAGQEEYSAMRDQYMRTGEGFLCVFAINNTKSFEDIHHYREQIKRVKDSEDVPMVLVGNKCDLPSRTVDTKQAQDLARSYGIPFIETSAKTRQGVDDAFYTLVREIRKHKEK
Chain of K-Ras G13C (P62937 whole entry): as the sequence (P62937 whole entry) above
Chain of K-Ras G12C (P01116-2 other isoform, or with tags, fused parts or gaps G12C): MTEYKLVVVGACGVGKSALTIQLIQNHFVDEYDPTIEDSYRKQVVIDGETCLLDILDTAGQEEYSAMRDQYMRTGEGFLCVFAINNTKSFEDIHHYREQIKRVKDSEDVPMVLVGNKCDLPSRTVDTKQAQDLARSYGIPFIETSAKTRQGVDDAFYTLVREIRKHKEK
Chain of K-Ras G12C (P62937 whole entry): as the sequence (P62937 whole entry) above
Chain of KRAS G13D (P01116-2 other isoform, or with tags, fused parts or gaps G13D): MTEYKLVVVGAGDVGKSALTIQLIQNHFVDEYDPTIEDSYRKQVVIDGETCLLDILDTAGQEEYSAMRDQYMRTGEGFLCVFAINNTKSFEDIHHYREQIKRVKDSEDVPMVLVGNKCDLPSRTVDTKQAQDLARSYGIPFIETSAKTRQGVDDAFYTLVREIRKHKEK
Chain of KRAS G13D (P62937 whole entry, canonical isoform): as the sequence (P62937 whole entry) above

For the compound `C=CC(=O)N1CC[C@H](C(=O)N(C)[C@H](C(=O)N[C@H]2Cc3cccc(c3)-c3ccc4c(c3)c(c(-c3cnccc3COC)n4CC)CC(C)(C)COC(=O)[C@@H]3CCCN(N3)C2=O)C(C)C)C1` (atropisomer, axis not shown) [Example A119], the IC50 in [1] was > 10000 nM; in [2], > 10000 nM; in test [4], 100 to 1000 nM; in [5], 1000 to 10000 nM; in test [6], > 10000 nM; in test [7], 100 to 1000 nM. In addition, the IC50 in test [8] fell in the range of 10 to 100 nM; in [9], 1000 to 10000 nM. Besides, the EC50 in test [3] (Homo sapiens, NCI-H358) was < 5000 nM.

As to `CCn1c(-c2cnccc2COC)c2c3cc(ccc31)-c1cccc(c1)C[C@H](NC(=O)[C@H](C(C)C)N(C)C(=O)[C@H]1CCN(C(=O)C#CCN(C)C)C1)C(=O)N1CCC[C@H](N1)C(=O)OCC(C)(C)C2` (atropisomer, axis not shown) [Example A120], the IC50 was 1000 to 10000 nM in test [1]; 1000 to 10000 nM in test [2]; 100 to 1000 nM and < 10 nM in test [4]; 100 to 1000 nM and 1000 to 10000 nM in test [5]; 1000 to 10000 nM and > 10000 nM in test [6]; 100 to 1000 nM and < 10 nM in test [7]. Also, the IC50 in [10] was 1000 to 10000 nM and > 10000 nM; in test [9], 1000 to 10000 nM and > 10000 nM. The EC50 in test [3] (Homo sapiens, NCI-H358) is < 5000 nM.

For `CCn1c(-c2cccnc2[C@H](C)OC)c2c3cc(ccc31)-c1cc(O)cc(c1)C[C@H](NC(=O)[C@H](C(C)C)N(C)C(=O)[C@H]1CCN(C(=O)/C=C/CN(C)C)C1)C(=O)N1CCC[C@H](N1)C(=O)OCC(C)(C)C2` (atropisomer, axis not shown) [Example A183], the IC50 in [1] was 1000 to 10000 nM and 10 to 100 nM; in test [2] it was 1000 to 10000 nM and 10 to 100 nM; in test [4], 10 to 100 nM and < 10 nM; in test [5], 10 to 100 nM and 1000 to 10000 nM; in test [6], 100 to 1000 nM and 10 to 100 nM; in test [7] it was 10 to 100 nM and < 10 nM. In addition, the IC50 in test [10] was 1000 to 10000 nM and 10 to 100 nM; in test [9], 1000 to 10000 nM and 10 to 100 nM. Besides, the EC50 in test [3] (Homo sapiens, NCI-H358) is < 5000 nM.

As for `CCn1c(-c2cccnc2[C@H](C)OC)c2c3cc(ccc31)-c1cc(O)cc(c1)C[C@H](NC(=O)[C@H](C(C)C)N(C)C(=O)[C@H]1CCN(C(=O)/C=C/CN3CCOCC3)C1)C(=O)N1CCC[C@H](N1)C(=O)OCC(C)(C)C2` (atropisomer, axis not shown) [Example A184], the IC50 was > 10000 nM and 100 to 1000 nM in [1]; 100 to 1000 nM and > 10000 nM in test [2]; 100 to 1000 nM and < 10 nM in test [4]; 100 to 1000 nM and > 10000 nM in test [5]; 1000 to 10000 nM and 10 to 100 nM in test [6]; 100 to 1000 nM and < 10 nM in test [7]. Moreover, the IC50 is 100 to 1000 nM and > 10000 nM in [10]; 1000 to 10000 nM and 10 to 100 nM in test [9]. Besides, in [3] (Homo sapiens, NCI-H358), the EC50 is < 5000 nM.

As to `C=CC(=O)Nc1ccc(C(=O)N(C)[C@H](C(=O)N[C@H]2Cc3cc(O)cc(c3)-c3ccc4c(c3)c(c(-c3cccnc3[C@H](C)OC)n4CC)CC(C)(C)COC(=O)[C@@H]3CCCN(N3)C2=O)C(C)C)cn1` (atropisomer, axis not shown) [Example A336], the IC50 was 1000 to 10000 nM in test [1]; 100 to 1000 nM in test [2]; < 10 nM in [5]; 100 to 1000 nM in [6]; < 10 nM in [7]; 100 to 1000 nM in test [10]. For the same compound, in test [9], the IC50 fell in the range of 100 to 1000 nM. In addition, the EC50 in test [3] is < 5000 nM.
